Test results published in publication PMC3272148 (2011).

What was measured:
[1] = target: T1, 5-HT2C receptor (Oryctolagus cuniculus, UniProt G1TAG7); experiment: [3H]mesulergine competition radioligand binding
T1 sequence (G1TAG7 33-453): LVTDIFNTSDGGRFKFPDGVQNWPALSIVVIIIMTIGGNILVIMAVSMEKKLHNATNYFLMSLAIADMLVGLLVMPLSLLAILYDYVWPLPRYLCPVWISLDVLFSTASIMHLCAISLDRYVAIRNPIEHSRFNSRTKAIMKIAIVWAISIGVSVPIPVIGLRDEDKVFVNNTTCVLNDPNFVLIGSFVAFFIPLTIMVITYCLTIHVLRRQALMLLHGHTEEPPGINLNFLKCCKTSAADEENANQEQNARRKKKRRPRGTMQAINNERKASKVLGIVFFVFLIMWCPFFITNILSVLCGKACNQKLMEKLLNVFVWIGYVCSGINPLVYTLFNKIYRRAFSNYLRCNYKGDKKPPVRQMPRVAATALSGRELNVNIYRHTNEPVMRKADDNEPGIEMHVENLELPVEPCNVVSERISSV

[2] = target: T2, dopamine1 (D1) receptor (Oryctolagus cuniculus, UniProt G1SML2); experiment: [3H]SCH23390 competition radioligand binding
T2 sequence (G1SML2 1-448): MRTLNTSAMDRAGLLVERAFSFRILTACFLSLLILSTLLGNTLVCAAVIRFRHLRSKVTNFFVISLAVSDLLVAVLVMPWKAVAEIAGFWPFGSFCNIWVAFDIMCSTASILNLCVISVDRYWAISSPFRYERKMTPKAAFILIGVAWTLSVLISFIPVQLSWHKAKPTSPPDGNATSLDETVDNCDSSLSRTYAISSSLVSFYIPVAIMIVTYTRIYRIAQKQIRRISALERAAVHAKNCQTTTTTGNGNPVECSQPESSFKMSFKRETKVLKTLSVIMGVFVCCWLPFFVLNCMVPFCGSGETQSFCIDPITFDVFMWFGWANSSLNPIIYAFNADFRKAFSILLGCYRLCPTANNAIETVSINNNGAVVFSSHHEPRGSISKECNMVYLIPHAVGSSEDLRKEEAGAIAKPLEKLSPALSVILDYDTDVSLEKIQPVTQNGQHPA

[3] = target: T2, dopamine1 (D1) receptor; experiment: [3H]SCH23390 saturation radioligand binding
[4] = target: serotonin2A (5-HT2A) receptor (Oryctolagus cuniculus, UniProt G1SYA7); experiment: [3H]ketanserin saturation radioligand binding
Sequence of serotonin2A (5-HT2A) receptor (G1SYA7 1-469): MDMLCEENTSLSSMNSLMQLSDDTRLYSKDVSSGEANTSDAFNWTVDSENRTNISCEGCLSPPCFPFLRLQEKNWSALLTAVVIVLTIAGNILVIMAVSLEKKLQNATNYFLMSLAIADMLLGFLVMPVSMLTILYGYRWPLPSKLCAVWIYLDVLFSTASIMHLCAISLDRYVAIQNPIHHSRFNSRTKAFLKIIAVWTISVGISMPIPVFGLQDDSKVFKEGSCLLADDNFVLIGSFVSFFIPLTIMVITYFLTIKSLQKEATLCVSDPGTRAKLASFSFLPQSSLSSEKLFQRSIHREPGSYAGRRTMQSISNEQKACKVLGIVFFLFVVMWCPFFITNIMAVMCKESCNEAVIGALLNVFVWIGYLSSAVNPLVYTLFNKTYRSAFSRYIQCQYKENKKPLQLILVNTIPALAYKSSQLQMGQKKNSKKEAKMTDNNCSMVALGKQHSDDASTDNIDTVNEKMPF

[5] = target: T1, 5-HT2C receptor; experiment: [3H]mesulergine saturation radioligand binding

COc1cc(CC(C)N)c(OC)cc1I (racemic) [DOI, (±)-1-(2,5-dimethoxy-4-iodophenyl)-2-aminopropane]
Ki [1]: 0.0735 µM

CCN(CC)C(=O)[C@@H]1C=C2c3cccc4[nH]cc(c34)C[C@H]2N(C)C1 [LSD]
Ki [1]: 0.0075 µM
Ki [2]: 0.161 µM

CN1CCc2cc(Cl)c(O)cc2[C@@H](c2ccccc2)C1 [SCH23390]
[3H]SCH23390 saturation radioligand binding (Bmax) [3]: Dopamine1 receptor density was quantified using eight concentrations of the antagonist radioligand, [^3H]SCH23390

O=C(c1ccc(F)cc1)C1CCN(CCn2c(=O)[nH]c3ccccc3c2=O)CC1 [ketanserin]
Kd [4]: 0.00021 µM

CN1C[C@@H](NS(=O)(=O)N(C)C)C[C@@H]2c3cccc4c3c(cn4C)C[C@H]21 [mesulergine]
[3H]mesulergine saturation radioligand binding (Bmax) [5]: Serotonin2C receptor density was quantified using eight concentrations of the antagonist radioligand, [^3H]mesulergine
